This assay deals with Anti-Fas-induced Jurkat cells. Put plainly: Anti-Fas-induced apoptosis of Jurkat cells in vitro (Caspase 3 substrate Ac-DEVD-AMC fluorescence). It counts as cell-based. The settings on record: Homo sapiens; Jurkat Clone E6-1, Anti-Fas 50 ng/mL, 24 hours, Ac-DEVD-AMC 10 μM.
The EC50 is the concentration needed to bring the measured effect to its halfway point. The compound `CC(C)(C)c1ccccc1NC(=O)C(=O)N1CC=CC[C@H](C(=O)N[C@@H](CC(=O)O)C(=O)COc2c(F)c(F)cc(F)c2F)C1` [Example 11] gave an EC50 of 27.2 nM. Turning to `O=C(O)C[C@H](NC(=O)C1CCN(S(=O)(=O)c2ccccc2)CC1)C(=O)COc1c(F)c(F)cc(F)c1F` [Example 81], the EC50 was 959 nM. `Cn1c(C(=O)N2CCC(C(=O)N[C@@H](CC(=O)OC(C)(C)C)C(=O)COc3c(F)c(F)cc(F)c3F)CC2)cc2ccccc21` [Example 44] showed a concentration for a half-maximal effect (EC50) of 39.7 nM.

For the compound `CC(C)(C)c1ccccc1NC(=O)C(=O)N1CC[C@H](C(=O)N[C@@H](CC(=O)O)C(=O)COc2c(F)c(F)cc(F)c2F)C2CCCCC21` (stereo partly shown) [Example 18], the EC50 turned out to be 557 nM. `O=C(O)C[C@H](NC(=O)C1CCN(C(=O)C(=O)NC2CCCC2)CC1)C(=O)COc1c(F)c(F)cc(F)c1F` [Example 61] gave an EC50 of 50.4 nM. In the case of `O=C(O)C[C@H](NC(=O)C1CCN(C(=O)C(=O)N2CCCC2)CC1)C(=O)COc1c(F)c(F)cc(F)c1F` [Example 90], the EC50 was 44.2 nM. `O=C(O)C[C@H](NC(=O)C1CCN(C(=O)c2nc3ccccc3[nH]2)CC1)C(=O)COc1c(F)c(F)cc(F)c1F` [Example 42] returned an EC50 of 25.2 nM. Regarding `O=C(O)C[C@H](NC(=O)c1ccc(NC(=O)OCc2ccccc2)cc1)C(=O)COc1c(F)c(F)cc(F)c1F` [Example 23], the EC50 turned out to be 215 nM. Consider `O=C(O)C[C@H](NC(=O)C1CCN(c2nc3cc(F)ccc3o2)CC1)C(=O)COc1c(F)c(F)cc(F)c1F` [Example 104], for which the EC50 amounted to 29.8 nM. The compound `CC(C)(C)c1cc(Cl)ccc1NC(=O)C(=O)N1CCC(C(=O)N[C@@H](CC(=O)O)C(=O)COc2c(F)c(F)cc(F)c2F)CC1` [Example 59] registered an EC50 of 157 nM. `O=C(O)C[C@H](NC(=O)[C@H]1COCCN(C(=O)c2noc3ccccc23)C1)C(=O)COc1c(F)c(F)cc(F)c1F` [Example 127] displayed an EC50 of 7.14 nM.

The compound `O=C(O)C[C@H](NC(=O)C1CCN(C(=O)C(=O)Nc2ccc(Cl)cc2C(F)(F)F)CC1)C(=O)COc1c(F)c(F)cc(F)c1F` [Example 60] gave an EC50 of 49.6 nM. Next, `O=C(O)C[C@H](NC(=O)C1CCN(c2noc3ccccc23)CC1)C(=O)COc1c(F)c(F)cc(F)c1F` [Example 84]: 35 nM; `CC(C)(C)c1ccccc1NC(=O)C(=O)N1CCCO[C@H](C(=O)N[C@@H](CC(=O)O)C(=O)COc2c(F)c(F)cc(F)c2F)C1` [Example 109]: 192 nM; `CC(C)(C)c1ccccc1C(=O)N1CCC(C(=O)N[C@@H](CC(=O)O)C(=O)COc2c(F)c(F)cc(F)c2F)CC1` [Example 53]: 67.5 nM. `O=C(O)C[C@H](NC(=O)C1CN(C(=O)OCc2ccccc2)CCO1)C(=O)COc1c(F)c(F)cc(F)c1F` (stereo partly shown) [Example 24]: the EC50 stood at 49.7 nM. The compound `CC(C)(C)c1ccccc1NC(=O)C(=O)N1C[C@H](C(=O)N[C@@H](CC(=O)O)C(=O)COc2c(F)c(F)cc(F)c2F)Cc2ccccc21` [Example 16] had an EC50 of 417 nM.

Turning to `O=C(O)C[C@H](NC(=O)C1CCN(C(=O)OCC(F)(F)F)CC1)C(=O)COc1c(F)c(F)cc(F)c1F` [Example 67], the EC50 was found to be 14.6 nM. Compound `O=C(O)C[C@H](NC(=O)C1CCN(C(=O)N2CCCC2)CC1)C(=O)COc1c(F)c(F)cc(F)c1F` [Example 89] yielded a 50% effective concentration (EC50) of 8.98 nM. Take `O=C(O)C[C@H](NC(=O)[C@@H]1COCCN(C(=O)C(=O)Nc2ccccc2Cl)C1)C(=O)COc1c(F)c(F)cc(F)c1F` [Example 130]: the EC50 is 8.1 nM. `O=C(O)C[C@H](NC(=O)C1CCN(C(=O)c2ccccn2)CC1)C(=O)COc1c(F)c(F)cc(F)c1F` [Example 35] gave an EC50 of 25.4 nM. As for `CC(C)OC(=O)N1CCC(C(=O)N[C@@H](CC(=O)O)C(=O)COc2c(F)c(F)cc(F)c2F)CC1` [Example 68], the figure is 23.2 nM; as for `O=C(O)C[C@H](NC(=O)[C@@H]1CCCN(C(=O)Oc2ccccc2)C1)C(=O)COc1c(F)c(F)cc(F)c1F` [Example 31], 21.4 nM. The compound `CC(C)[C@@H]1CC[C@@H](C)C[C@H]1OC(=O)N1CCC(C(=O)N[C@@H](CC(=O)O)C(=O)COc2c(F)c(F)cc(F)c2F)CC1` [Example 97] registered an EC50 of 112 nM. As for `O=C(O)C[C@H](NC(=O)C1CCN(C(=O)OCc2ccc(Cl)cc2Cl)CC1)C(=O)COc1c(F)c(F)cc(F)c1F` [Example 91], the figure is 62 nM; as for `O=C(O)C[C@H](NC(=O)[C@@H]1CCCN(C(=O)OC2CCCC2)C1)C(=O)COc1c(F)c(F)cc(F)c1F` [Example 28], 22.1 nM. The compound `O=C(O)C[C@H](NC(=O)C1CCN(c2nc3ccccc3o2)CC1)C(=O)COc1c(F)c(F)cc(F)c1F` [Example 83] had an EC50 of 24 nM. As to `O=C(O)C[C@H](NC(=O)C1CCN(C(=O)c2ccno2)CC1)C(=O)COc1c(F)c(F)cc(F)c1F` [Example 85], the EC50 came out at 16.3 nM. The compound `CC1(C(=O)N2CCC(C(=O)N[C@@H](CC(=O)O)C(=O)COc3c(F)c(F)cc(F)c3F)CC2)CCCC1` [Example 52] yielded a 50% effective concentration (EC50) of 21 nM.

Compound `CC(C)(C)c1ccccc1NC(=O)C(=O)N1CCCCC[C@@H](C(=O)N[C@@H](CC(=O)O)C(=O)COc2c(F)c(F)cc(F)c2F)C1` [Example 113] came in with an EC50 of 46.2 nM.

Regarding `O=C(O)C[C@H](NC(=O)[C@@H]1CCCN(C(=O)C2CCCC2)C1)C(=O)COc1c(F)c(F)cc(F)c1F` [Example 26], it took 12.6 nM to reach a half-maximal effect (EC50). Compound `O=C(O)C[C@H](NC(=O)[C@@H]1COCCN(C(=O)c2cc(-c3ccccc3Cl)on2)C1)C(=O)COc1c(F)c(F)cc(F)c1F` [Example 126] had a concentration for a half-maximal effect (EC50) of 9.37 nM.

Turning to `Cc1c(F)cc(F)c(F)c1OCC(=O)[C@H](CC(=O)O)NC(=O)C1CCN(C(=O)c2noc3ccccc23)CC1` [Example 41], the half-maximal effective concentration (EC50) amounted to 18.8 nM.

Compound `CC(C)(C)c1ccccc1NC(=O)C(=O)N1CCCO[C@@H](C(=O)N[C@@H](CC(=O)O)C(=O)COc2c(F)c(F)cc(F)c2F)C1` [Example 110] had an EC50 of 383 nM. Turning to `CC(C)(C)c1ccccc1NC(=O)C(=O)N1CCCC[C@@](C)(C(=O)N[C@@H](CC(=O)O)C(=O)COc2c(F)c(F)cc(F)c2F)C1` [Example 112], the EC50 was 165 nM. `O=C(O)C[C@H](NC(=O)C1CCN(C(=O)OCc2ccccc2)C1)C(=O)COc1c(F)c(F)cc(F)c1F` (stereo partly shown) [Example 22] had an EC50 of 34.2 nM. Regarding `CC(C)(C)c1ccccc1NC(=O)C(=O)N1CCOC(C(=O)N[C@@H](CC(=O)O)C(=O)COc2c(F)c(F)cc(F)c2F)C1` (stereo partly shown) [Example 8], the response was half-maximal at 124 nM (EC50). Consider `O=C(O)C[C@H](NC(=O)C1CCN(C(=O)O[C@@H]2C[C@H]3CC[C@@H]2C3)CC1)C(=O)COc1c(F)c(F)cc(F)c1F` [Example 100], for which the EC50 amounted to 31.5 nM. In the case of `Cc1ccc(C)c(CNC(=O)C(=O)N2CCC(C(=O)N[C@@H](CC(=O)O)C(=O)COc3c(F)c(F)cc(F)c3F)CC2)c1` [Example 95], the EC50 is 33.2 nM.

`CC1(C(=O)N[C@@H](CC(=O)O)C(=O)COc2c(F)c(F)cc(F)c2F)CCN(C(=O)C(=O)Nc2ccccc2C(C)(C)C)CC1` [Example 20]: it took 698 nM to reach a half-maximal effect (EC50). With `Cn1c(C(=O)N2CCC(C(=O)N[C@@H](CC(=O)O)C(=O)COc3c(F)c(F)cc(F)c3F)CC2)nc2ccccc21` [Example 43], it took 38.6 nM to reach a half-maximal effect (EC50). `Cc1ccc(C)c(CCNC(=O)C(=O)N2CCC(C(=O)N[C@@H](CC(=O)O)C(=O)COc3c(F)c(F)cc(F)c3F)CC2)c1` [Example 94] displayed a 50% effective concentration (EC50) of 43.9 nM. On to `O=C(O)C[C@H](NC(=O)C1CCN(c2ncc3cc(F)ccc3n2)CC1)C(=O)COc1c(F)c(F)cc(F)c1F` [Example 82], for which the EC50 came to 44 nM. In turn, `O=C(O)C[C@H](NC(=O)CC1CN(C(=O)C2CCCC2)C1)C(=O)COc1c(F)c(F)cc(F)c1F` [Example 105] yielded an EC50 of 27.6 nM. Compound `O=C(O)C[C@H](NC(=O)C1CCN(C(=O)NCc2ccccc2)CC1)C(=O)COc1c(F)c(F)cc(F)c1F` [Example 78] came in with an EC50 of 35.9 nM. `Cc1ccc(Cl)c(OC(=O)N2CCC(C(=O)N[C@@H](CC(=O)O)C(=O)COc3c(F)c(F)cc(F)c3F)CC2)c1` [Example 72] gave an EC50 of 17.9 nM.

Turning to `CC(C)(C)c1ccccc1NC(=O)C(=O)N1CCOC[C@@H](C(=O)N[C@@H](CC(=O)O)C(=O)COc2c(F)c(F)cc(F)c2F)C1` [Example 123], the EC50 came to 38.9 nM. The compound `O=C(O)C[C@H](NC(=O)C1CCN(C(=O)c2ncccn2)CC1)C(=O)COc1c(F)c(F)cc(F)c1F` [Example 38] yielded a concentration giving a half-maximal response (EC50) of 22 nM. Next, `O=C(O)C[C@H](NC(=O)C1CCN(C(=O)C(=O)Nc2cc(Cl)ccc2Cl)CC1)C(=O)COc1c(F)c(F)cc(F)c1F` [Example 101]: 61.3 nM; `O=C(O)C[C@H](NC(=O)C1CCN(C(=O)Oc2cccc(Cl)c2Cl)CC1)C(=O)COc1c(F)c(F)cc(F)c1F` [Example 103]: 19.8 nM.

In turn, `O=C(O)C[C@H](NC(=O)C1CCN(C(=O)c2nsc3ccccc23)CC1)C(=O)COc1c(F)c(F)cc(F)c1F` [Example 51] showed an EC50 of 27.2 nM. Compound `O=C(O)C[C@H](NC(=O)C1CC2(CCN(C(=O)C3CCCC3)CC2)C1)C(=O)COc1c(F)c(F)cc(F)c1F` [Example 106] came in with a half-maximal effective concentration (EC50) of 17.5 nM. With `CC(C)(C)c1ccccc1NC(=O)C(=O)N1C[C@@H](C(=O)N[C@@H](CC(=O)O)C(=O)COc2c(F)c(F)cc(F)c2F)Cc2ccccc21` [Example 17], the EC50 was found to be 289 nM. The compound `CC(C)(C)c1ccccc1NC(=O)C(=O)N1CCCCC[C@H](C(=O)N[C@@H](CC(=O)O)C(=O)COc2c(F)c(F)cc(F)c2F)C1` [Example 114] returned an EC50 of 66.3 nM. In turn, `O=C(O)C[C@H](NC(=O)C1CCN(C(=O)Nc2ccccc2)CC1)C(=O)COc1c(F)c(F)cc(F)c1F` [Example 80] returned an EC50 of 17.5 nM. Regarding `O=C(O)C[C@H](NC(=O)[C@@H]1CCCCN(C(=O)c2noc3ccccc23)C1)C(=O)COc1c(F)c(F)cc(F)c1F` [Example 122], the EC50 was 5.8 nM. For the compound `O=C(O)C[C@H](NC(=O)C1CCN(C(=O)C(=O)NCC2CCCC2)CC1)C(=O)COc1c(F)c(F)cc(F)c1F` [Example 63], the EC50 is 38 nM.

`O=C(O)C[C@H](NC(=O)C1CCN(C(=O)C(=O)NCCC2CCCC2)CC1)C(=O)COc1c(F)c(F)cc(F)c1F` [Example 62] showed an EC50 of 42.4 nM.

The values are drawn from patent US10981860B2, “Caspase inhibitor and pharmaceutical composition, use and therapeutic method thereof” (Chia Tai Tianqing Pharmaceutical Group Co., Ltd., priority 2016, dated 2021).
